In PMC12830042, “Investigating the impact of charge and hydrophilicity on peptide-mucin interactions using a simple mucin model” (AAPS open, 2025):

System: Mucin type II from porcine stomach
Assay: Peptide diffusion across a mono-component mucin layer (Transwell donor to acceptor chamber)
Assay type: in vitro ADME
Details: for time window in which acceptor concentration plateaued / leveled off: donor 266 and 133 μg/mL (both concentrations); for time window in which acceptor concentration plateaued / leveled off / time window in which acceptor concentration plateaued: mucin layer, pH 6.8, HPLC; for maximum concentration in the acceptor chamber: ~2.5% (w/v) Type II porcine mucin on Transwell, phosphate buffer pH 6.8, 37°C, over 6 h, HPLC-UV 214 nm
Procedure: Around 2.5% (w/v) of Type II porcine mucin was added to the donor side of the Transwell™ plate along with 300–1000 μL of 6.8 pH phosphate buffer. The mixture was shaken at 37°C for 45–60 min until the proper suspension was attained. Then, 1–2 mL of phosphate buffer at 6.8 pH was added to the acceptor side of the Transwell™ plate.
Fig. 1 A schematic diagram of the diffusion chamber to study peptide diffusion through a mucin layer. The well consists of donor and acceptor chambers separated by a mucin layer. The peptide was added to the donor chamber, and the diffusion of the peptide was monitored by its appearance in the acceptor chamber. The peptide in the acceptor chamber was sampled as a function of time, and the peptide concentration was determined by fluorescence spectroscopy, HPLC, or mass spectrometry
Initially, FITC-ADT10 and FITC-HAV10 peptides were used to test the mucin model in phosphate buffer at pH 6.8. Different concentrations of peptide in phosphate buffer at pH 6.8 were added to the donor chamber; the acceptor chamber contained a phosphate buffer at pH 6.8 in the Transwell™. At predetermined time points, 100 μL aliquots were taken from the acceptor chamber, transferred into 96-well plates, and replaced with pre-heated phosphate buffer pH 6.8. The aliquots were then analyzed by fluorescence spectroscopy plate reader at […].
The diffusion of each unlabeled peptide from the donor-to-acceptor chambers was analyzed by Agilent® 1200 HPLC equipped with a Zorbax C18 column with 3.5 μm particle size and dimensions of 4.6 × 50 mm. The column temperature was held at 30°C during the chromatographic run. Mobile phase A was 0.1% trifluoroacetic acid in Milli-Q water, and mobile phase B was 0.085% trifluoroacetic acid in acetonitrile. The detector was a UV–Vis detector monitoring at 214 nm wavelengths. Calibration curves were prepared in phosphate buffer pH 6.8 in concentrations ranging from 1 to 266 μg/mL.
Student t-tests were used to analyze the difference between the percentage diffused of FITC-HAV10 and FITC-ADT10, octreotide and octreotide A5, and lanreotide and lanreotide A5. The difference in diffusion percentages of ADT peptides was analyzed using ANOVA with Student − Newman − Keul post hoc comparison of the means and Dunnett’s Test comparing DTPPD, DTPPT, and DTPPVK with ADTC5. Statistical significance was set at p < 0.05 unless otherwise stated.

Row | Compound | time window in which acceptor concentration plateaued / leveled off [h] | time window in which acceptor concentration plateaued (donor 133 μg/mL) [h] | maximum concentration in the acceptor chamber (donor 133 μg/mL) [mg/mL] | time window in which acceptor concentration plateaued (donor 266 μg/mL) [h] | maximum concentration in the acceptor chamber (donor 266 μg/mL) [mg/mL]
1 | CC(C)[C@@H]1NC(=O)[C@H](CCCCN)NC(=O)[C@@H](Cc2c[nH]c3ccccc23)NC(=O)[C@H](Cc2ccc(O)cc2)NC(=O)[C@@H](NC(=O)[C@H](N)Cc2ccc3ccccc3c2)CSSC[C@@H](C(=O)N[C@H](C(N)=O)[C@@H](C)O)NC1=O [Lanreotide] | 4 to 6 |  |  |  | 
2 | C[C@@H](O)[C@@H]1NC(=O)[C@H](CCCCN)NC(=O)[C@@H](Cc2c[nH]c3ccccc23)NC(=O)[C@H](Cc2ccccc2)NC(=O)[C@@H](NC(=O)[C@H](N)Cc2ccccc2)CSSC[C@@H](C(=O)N[C@H](CO)[C@@H](C)O)NC1=O [Octreotide] |  | 4 to 6 | 0.00593 | 2 to 6 | 0.0116
3 | Cyclo(1,7)Ac-CDTPPVC-NH2 (disulfide) [ADTC5, cyclic ADT cadherin peptide that modulates intercellular junctions] | 2 to 6 |  |  |  | 
